What all share (assay): relative viability (nuclei count vs DMSO), 5 days (fraction); higher = more cells survive
Compound in assay [1]: O=c1[nH]cc(F)c(=O)[nH]1 [5-Fluorouracil] + COc1cc2c(Oc3ccc(NC(=O)C4(C(=O)Nc5ccc(F)cc5)CC4)cc3F)ccnc2cc1OCCCN1CCOCC1 [Foretinib] (partner 0.25 µM)
In a few lines:
(§1)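 Nuclei were stained with Hoechst during a one-step fixation (final 0.05% Triton X-100, 1% formaldehyde, 1 ug/ml Hoechst) carried out 5 days after dosing, then counted on 4× images. The cells, lung cancer lines in 1536-well plates, had been dosed by pin tool the day after seeding with one drug alone or a fixed anchor-drug dose plus five library-drug doses (not always all listed) in √10 steps. Relative viability is the nuclei count in treated wells divided by that in vehicle wells, and each value is the median of duplicate plates.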

Compound in assay [2]: O=c1[nH]cc(F)c(=O)[nH]1 [5-Fluorouracil] + Cc1nc(NC(=O)N2CCC[C@H]2C(N)=O)sc1-c1ccnc(C(C)(C)C(F)(F)F)c1 [Alpelisib] (partner 2 µM)
In a few lines:
as §1

Compound in assay [3]: CN[C@@H]1C[C@H]2O[C@@](C)([C@@H]1OC)n1c3ccccc3c3c4c(c5c6ccccc6n2c5c31)C(=O)NC4 [Staurosporine] + Cc1cc(Nc2cc(N3CCN(C)CC3)nc(Sc3ccc(NC(=O)C4CC4)cc3)n2)n[nH]1 [Tozasertib] (partner 0.1 µM)
In a few lines: as §1

Compound in assay [4]: CN[C@@H]1C[C@H]2O[C@@](C)([C@@H]1OC)n1c3ccccc3c3c4c(c5c6ccccc6n2c5c31)C(=O)NC4 [Staurosporine] + CS(=O)(=O)CCNCc1ccc(-c2ccc3ncnc(Nc4ccc(OCc5cccc(F)c5)c(Cl)c4)c3c2)o1 [Lapatinib] (partner 2 µM)
In a few lines: as §1

As for UMC-11, the relative viability stood at 0.983 in assay [1] (first compound 0.02 µM); 0.728 in assay [1] (first compound 0.2 µM); 0.518 in assay [1] (first compound 0.6325 µM); 0.396 in assay [1] (first compound 2 µM); 0.792 in assay [2] (first compound 0.02 µM); 0.645 in assay [2] (first compound 0.2 µM). The relative viability in assay [2] (first compound 2 µM) was 0.326; in assay [3] (first compound 0.005 µM) it was 0.189; in assay [3] (first compound 0.01581 µM), 0.161; in assay [3] (first compound 0.05 µM), 0.145; in assay [3] (first compound 0.1581 µM) it was 0.127; in assay [3] (first compound 0.5 µM), 0.122. For the same cell line, the relative viability was determined as 1.14 in assay [4] (first compound 0.005 µM); 0.158 in assay [4] (first compound 0.01581 µM); 0.408 in assay [4] (first compound 0.05 µM); 0.141 in assay [4] (first compound 0.1581 µM); 0.0855 in assay [4] (first compound 0.5 µM).

The values are drawn from the supplement of paper PMC10307832.
